In patent publication US12521358B2, “Method for selecting cancer patients for whom combination therapy with retinoid and cancer therapeutic agent is effective, and combination medicament with retinoid and cancer therapeutic agent” (RaQualia Pharma Inc., priority 2020, dated 2026):

Tests used:
[1] = tested on: primary mouse mesenchymal stem cells; test: Meflin gene (Islr) expression by qPCR after retinoid treatment (Example 4); format: cell-based; conditions: relative expression level, control (DMSO-treated cells) = 1, retinoid 1 μM, 48 hours
Experimental: (§1) The primary human pancreatic stellate cells used are those provided by Dr. Masamune, Tohoku University. The primary mouse mesenchymal stem cells used are those purchased from Cyagen Co., Ltd. Both pancreatic stellate cells and mesenchymal stem cells are considered to be the origin of CAF. As the retinoid, the retinoid contained in SCREEN-WELL Nuclear Receptor ligand library (ENZO) is used. DMEM+10% FBS is used as a culture medium. The cells are seeded in a collagen-coated dish and cultured until they are 100% confluent, and various retinoids are added to a concentration of 1 μM. After 48 hours, cells are harvested, RNA is extracted using RNeasyPLUS KIT (QIAGEN), and cDNA is synthesized using ReverseTra Ace qPCR RT Master Mix (TOYOBO). The expression level of the meflin gene (ISLR and Islr) is measured by qPCR using the Gene expression assay (Thermo Fisher scientific).

[2] = tested on: primary human pancreatic stellate cells; test: Meflin gene (ISLR) expression by qPCR after retinoid treatment (Example 4); format: cell-based; conditions: relative expression level, control (DMSO-treated cells) = 1, retinoid 1 μM, 48 hours
Experimental: as §1

[3] = tested on: primary mouse mesenchymal stem cells; test: Islr, Acta2, Col1a1 and Col3a1 expression by qPCR after retinoid treatment (Example 5); format: cell-based; conditions: vs control (DMSO), 48 hours after addition; for expression level of meflin gene (Islr): FIG. 27(A); for expression level of actin gene (Acta2): FIG. 27(B); for expression level of type I collagen gene (Col1a1): FIG. 27(C); for expression level of type III collagen gene (Col3a1): FIG. 27(D)
Experimental: as §1
The same method is performed as in the experiment using the primary mouse mesenchymal stem cells in Example 4. ATRA, AM80 and AM580 are used as retinoids. The expression levels of the meflin gene (Islr), actin gene (Acta2), type I collagen gene (Col1a1) and type III collagen gene (Col3a1) are measured by qPCR.

[4] = tested on: mouse pancreatic cancer cells mT5; test: AM80 alone in mice subcutaneously transplanted with mT5 (Example 6); format: in vivo
Text: Pancreatic cancer cell mT5, which was distributed by Dr. David Tuveson, Cold Spring Harbor Laboratory, is used. mT5 is a pancreatic cancer cell established from a pancreatic tumor developed in KPC mice, which is a pancreatic cancer spontaneous onset model (Organoid models of human and mouse ductal pancreatic cancer. Cell. 2015 Jan. 15; 160 (1-2)): 324-38. Doi: 10.1016/j. cell. 2014.12.021. Epub 2014 Dec. 31.).
C57BL/6J female mice are subcutaneously transplanted with mouse pancreatic cancer cells mT5 (1.0×10^6 cells). Eight days later (Day 8), AM80 is orally administered for 15 days to mice in which tumor formation was confirmed. Depending on the dose of AM80 (0.1 mg/kg/day, 0.5 mg/kg/day, 1 mg/kg/day and 3 mg/kg/day), a total of 5 groups, namely, four AM80 administration groups and a control group (DMSO administration) are set up (n=5 in each group). Body weight and tumor volume are measured before the start of the AM80 administration (Day 8), Day 11, Day 15, Day 18 and Day 22. On Day 22, mice are euthanized, tumors are removed to prepare tissue specimens, the in situ hybridization (ISH) is performed to detect the expression of the meflin gene (Islr) and the actin gene (Acta2), and then the number of positive signals is counted for each. Furthermore, a tissue specimen of the tumor is prepared, immunostaining is performed with an anti-CD31 antibody to stain CD31, which is a marker for vascular endothelial cells, and the vascular lumen area is measured.

[5] = tested on: mouse pancreatic cancer cells mT5; test: Collagen arrangement in tumor stroma by second harmonic microscope (Example 16); format: in vivo; conditions: tamibarotene 3.0 mg/kg oral once a day for 7 days from Day 8; vs control (DMSO); Day 15
Experimental: C57BL/6J female mice are subcutaneously transplanted with mouse pancreatic cancer cells mT5 (1.0×10^6 cells). Eight days later (Day 8), the mice are divided into two groups, a control group and a tamibarotene administration group (AM80 group) to ensure equal tumor volume (n=5 in each group). In the AM80 group, tamibarotene (3.0 mg/kg) is orally administered once a day for 7 days from Day 8. In the control group, DMSO is orally administered instead of tamibarotene. On Day 15, mice are euthanized, and tumors are removed to prepare tissue specimens. Eight to sixteen images are randomly selected from the tumor tissue specimen, the collagen arrangement is measured with a second harmonic microscope, and the curvature (linearity) is analyzed.

[6] = tested on: mouse pancreatic cancer cells mT5; test: Tamibarotene and gemcitabine in mice transplanted with mT5 (Example 7); format: in vivo; conditions: tamibarotene 3.0 mg/kg oral once a day for 17 days from Day 8; gemcitabine 50 mg/kg i.p. Day 15, 18, 21; to Day 24
Experimental: C57BL/6J female mice are subcutaneously transplanted with mouse pancreatic cancer cells mT5 (1.0×10^6 cells). […] In the Gem+AM80 group, tamibarotene (3.0 mg/kg) is orally administered once a day for 17 days from Day 8. In addition, in the Gem group and the Gem+AM80 group, gemcitabine (50 mg/kg) is intraperitoneally administered once each on Day 15, Day 18 and Day 21. In the control group, DMSO is orally administered instead of tamibarotene, and saline is intraperitoneally administered instead of gemcitabine. Tumor volume is measured before start of the AM80 administration (Day 8), Day 12, Day 15, Day 18, Day 21 and Day 24.

[7] = AM80 3 mg/kg/day vs control group, tumor removed Day 22

## CC1=C(/C=C/C(C)=C/C=C/C(C)=C/C(=O)O)C(C)(C)CCC1O (stereo not shown) [4-Hydroxyretinoic acid, 4-hydroxyretinoic acid]
[1]
  ISLR expression level (mean value): 1.912
[2]
  ISLR expression level (mean value): 3.264

## CC1=C(/C=C/C(C)=C\C=C\C(C)=C\C(=O)O)C(C)(C)CCC1 [9-cis Retinoic acid, 9-cis-retinoic acid]
[2]
  ISLR expression level (mean value): 4.894

## CC1=C(/C=C/C(C)=C/C=C/C(C)=C\C(=O)O)C(C)(C)CCC1 [13-cis Retinoic, 13-cis-retinoic acid]
[2]
  ISLR expression level (mean value): 7.252

## CC1(C)CCC(C)(C)c2cc(NC(=O)c3ccc(C(=O)O)cc3)ccc21 [AM80, tamibarotene]
[3]
  expression level of meflin gene (Islr): high
  expression level of actin gene (Acta2): low
  expression level of type I collagen gene (Col1a1): low
  expression level of type III collagen gene (Col3a1): low
[4]; [7]
  number of dots of the Acta2 positive signal per high-magnification field (ISH): significantly lower
  number of dots of the Islr positive signal per high-magnification field (ISH): significantly higher
  vascular lumen area (anti-CD31 immunostaining): significantly higher
[4]; AM80 0.1, 0.5, 1 and 3 mg/kg/day oral for 15 days from Day 8, vs control (DMSO), Day 8-22
  tumor volume: does not suppress the growth
[4]; AM80 0.1-3 mg/kg/day oral for 15 days
  body weight: does not affect the body weight
[5]
  curvature (linearity) of collagen: reducing the linearity of collagen

## CC1(C)CCC(C)(C)c2cc(C(=O)Nc3ccc(C(=O)O)cc3)ccc21 [AM580]
[3]
  expression level of meflin gene (Islr): high
  expression level of actin gene (Acta2): low
  expression level of type I collagen gene (Col1a1): low
  expression level of type III collagen gene (Col3a1): low
[1]
  ISLR expression level (mean value): 5.295
[2]
  ISLR expression level (mean value): 3625.326

## CC1=C(/C=C/C(C)=C/C=C/C(C)=C/C(=O)O)C(C)(C)CCC1 [ATRA, all-trans retinoic acid]
[3]
  expression level of meflin gene (Islr): high
  expression level of actin gene (Acta2): low
  expression level of type I collagen gene (Col1a1): low
  expression level of type III collagen gene (Col3a1): low
[1]
  ISLR expression level (mean value): 1.693
[2]
  ISLR expression level (mean value): 217.5011

## COc1cc(C)c(/C=C/C(C)=C/C=C/C(C)=C/C(=O)O)c(C)c1C [Acitretin]
[1]
  ISLR expression level (mean value): 7.659
[2]
  ISLR expression level (mean value): 47.59

## COc1ccc(-c2ccc3cc(C(=O)O)ccc3c2)cc1C12CC3CC(CC(C3)C1)C2 [Adapalene, adapalene]
[1]
  ISLR expression level (mean value): 5.428

## CC(C)(c1ccc(OCC2CO2)cc1)c1ccc(OCC2CO2)cc1 (stereo not shown) [BADGE, bisphenol A diglycidyl ether]
[2]
  ISLR expression level (mean value): 5089.576

## Nc1ccn([C@@H]2O[C@H](CO)[C@@H](O)C2(F)F)c(=O)n1 [Gem, gemcitabine]
[6]
  tumor growth (tumor volume): more significantly suppresses the tumor growth than the control group

## CC(=O)OC/C=C(C)/C=C/C=C(C)/C=C/C1=C(C)CCCC1(C)C [Retinyl acetate, retinyl acetate]
[2]
  ISLR expression level (mean value): 3.29

## C/C(=C\c1ccc(C(=O)O)cc1)c1ccc2c(c1)C(C)(C)CCC2(C)C [TTNPB]
[1]
  ISLR expression level (mean value): 5.183
[2]
  ISLR expression level (mean value): 15.94
